According to patent US20100292246A1, “FORMULATIONS OF 1-(4-BENZOYL-PIPERAZIN-1-YL)-2-[4-METHOXY-7-(3-METHYL-[1,2,4]TRIAZOL-1-YL)-1H-PYRROLO[2,3-C]PYRIDIN-3-YL]-ETHANE-1,2-DIONE” (Bristol-Myers Squibb Company, priority 2004, published 2010):
Values after ≈ are worked out from the molar mass of the structure shown.

Key:
[1] = as disclosed in co-pending application; cited from earlier work
[2] = aqueous solubility of crystalline Compound (I); format: physicochemical; settings: water (aqueous); crystalline material P-1
Text: Compound (I) exists in several different crystalline forms: P-1, P-2, P-3, and P-4. […] The present invention relates to formulations that effectively deliver Compound (I).

| solubility [2] [µg/mL] | Compound | solubility of Compound (I) in crystalline form [1] |
| --- | --- | --- |
|  | COc1cnc(-n2cnc(C)n2)c2[nH]cc(C(=O)C(=O)N3CCN(C(=O)c4ccccc4)CC3)c12 [Compound (I), 1-(4-benzoyl-piperazin-1-yl)-2-[4-methoxy-7-(3-methyl-[1,2,4]triazol-1-yl)-1H-pyrrolo[2,3-c]pyridin-3-yl]-ethane-1,2-dione] | typically low |
| 2.7 (≈ 5.7 µM) | COc1cnc(-n2cnc(C)n2)c2[nH]cc(C(=O)C(=O)N3CCN(C(=O)c4ccccc4)CC3)c12 [Sample P-1, 1-(4-benzoyl-piperazin-1-yl)-2-[4-methoxy-7-(3-methyl-[1,2,4]triazol-1-yl)-1H-pyrrolo[2,3-c]pyridin-3-yl]-ethane-1,2-dione] |  |
